{"source": "patent US9958439B2", "about": "“Carbohydrate detection” (RICHTER LIFE SCIENCE DEVELOPMENT AB, priority 2012, dated 2018)", "key": {"[1]": {"experimental": "(§1) 3 μM of each probe was applied to serial two fold dilutions of the carbohydrate of which the concentration shown here are 5 mg/ml (_.), 2.5 mg/ml (. . . ) 1.25 mg/ml (__) and 0 mg/ml (_). The excitation spectrum of the probe was analyzed for wavelengths 300-500 nm with emission read at 545 nm.\n3 μM of each probe was applied to serial two fold dilutions of the carbohydrate. Respective probes were excited at wavelengths unique to each probe (specified in figure), and emission was read at 545 nm. […] The mean increase in signal (_) with [Glucose] and the fitted regression line (__) is shown.\n(§2) Serial dilutions of carbohydrate suspensions were prepared in dH2O. Concentrations ranging from 10 to 0.039 mg/ml was used for β-1,3-glucan, cellulose and chitin, whereas 5 to 0.019 mg/ml was used for sodium alginate, glucose, amylose, glycogen, cellulobiose, heparin, chondroitin sulfate A. 3 μM of each LCO probe was added to 1 ml aliquots of each concentration of carbohydrate, after which 100 μl was dispensed in triplicates into 96 well plates. Excitation spectra were collected by exciting the sample from 300 to 500 nm and detecting emission at 545 nm. Detection of carbohydrate is concluded when there is a reproducible change in λmax and/or RFU intensity with reference to the negative control. Data from three concentrations, as well as the negative control are shown for each carbohydrate as specified in respective figure.\n(§3) The excitation wavelength (emission detected at 545 nm) selected for each LCO is either (1) the λmax, or (2) the excitation wavelength which suffers the lowest background. A linear regression analysis is performed to determine the relationship between the carbohydrate concentration and RFU."}, "[2]": {"conditions": "for RFU change (Correlation analysis) / RFU change (Signal deviation with increasing [Carbohydrate]) / λmax change: 3 μM probe; for RFU change (Correlation analysis): probe-specific excitation λ, emission 545 nm; for RFU change (Signal deviation with increasing [Carbohydrate]) / λmax change: spectral analysis, Excitation 300-500, Emission 545; for carbohydrate can be detected and/or differentiated by the LCO: conclusion from change in signal magnitude and/or shift in λmax; for Gradient Parameters (gradient of regression line) / Linear relationship / Quality of Gradient: linear regression", "experimental": "(§4) The excitation spectrum of the probe was analyzed for wavelengths 300-500 nm with emission read at 545 nm.\n(§5) 3 μM of each probe was applied to serial two fold dilutions of the insoluble carbohydrate. Respective probes were excited at wavelengths unique to each probe (specified in figure), and emission was read at 545 nm.\nas §2, §3"}, "[3]": {"experimental": "as §4\n(§6) 3 μM of each probe was applied to serial two fold dilutions of the carbohydrate. Respective probes were excited at wavelengths unique to each probe (specified in figure), and emission was read at 545 nm.\nas §2, §3", "remark": "listed apart in the source"}, "[4]": {"conditions": "for RFU change (Correlation analysis): probe-specific excitation λ, emission 545 nm; for carbohydrate can be detected and/or differentiated by the LCO: conclusion from change in signal magnitude and/or shift in λmax; for Gradient Parameters (gradient of regression line) / Linear relationship / Quality of Gradient: linear regression", "experimental": "(§7) 3 μM of each probe was applied to serial two fold dilutions of the carbohydrate of which the concentration shown here are 5 mg/ml (_.), 2.5 mg/ml (. . . ), 1.25 mg/ml (__) and 0 mg/ml (_). The excitation spectrum of the probe was analyzed for wavelengths 300-500 nm with emission read at 545 nm.\nas §6, §2, §3"}, "[5]": {"experimental": "as §7, with “of the insoluble carbohydrate of” for “of the carbohydrate of”\nas §5, §2, §3", "remark": "listed apart in the source"}, "[6]": {"conditions": "for RFU change (Correlation analysis): probe-specific excitation λ, emission 545 nm; for Gradient Parameters (gradient of regression line) / Quality of Gradient: linear regression", "experimental": "as §1, §6, §2, §3"}, "[7]": {"conditions": "glucose concentration vs RFU, linear regression"}, "[8]": {"conditions": "β-1,3-glucan concentration vs RFU"}, "[9]": {"conditions": "Chondroitin Sulfate A 5-0.019 mg/ml, 3 μM probe, spectral analysis, Excitation 300-500, Emission 545"}, "[10]": {"conditions": "Chondroitin Sulfate A concentration vs RFU, linear regression"}, "[11]": {"conditions": "Glycogen 5-0.019 mg/ml, 3 μM probe, spectral analysis, Excitation 300-500, Emission 545"}, "[12]": {"conditions": "sodium alginate concentration vs RFU, linear regression"}, "[13]": {"conditions": "Cellulobiose 5-0.019 mg/ml, 3 μM probe, spectral analysis, Excitation 300-500, Emission 545"}, "[14]": {"conditions": "cellulobiose concentration vs RFU"}}, "note": "Where two headings read alike, the source gives them in different places."}
{"smiles": "Cl.Cl.N=C(N)NCCC[C@H](NC(=O)Cc1cc(-c2cccs2)sc1-c1ccc(-c2sc(-c3cccs3)cc2CC(=O)N[C@@H](CCCNC(=N)N)C(=O)O)s1)C(=O)O", "note": "[pHTA-Arg, penta Hydrogen Thiophene Acetic acid Arginine]", "values": [{"measurement": "RFU change (Correlation analysis)", "setting": "[1]; Glucose 5-0.019 mg/ml, 3 μM probe, probe-specific excitation λ, emission 545 nm", "result": "Unclear"}, {"measurement": "RFU change (Signal deviation with increasing [Carbohydrate])", "setting": "[1]; Glucose 5-0.019 mg/ml, 3 μM probe, spectral analysis, Excitation 300-500, Emission 545", "result": "Increases"}, {"measurement": "Gradient Parameters (gradient of regression line)", "setting": "[1]; [7]", "result": "17.9 ± 38.1"}, {"measurement": "Quality of Gradient", "setting": "[1]; [7]", "result": "Horizontal"}, {"measurement": "Sensitivity", "setting": "[1]; to glucose", "result": "No"}, {"measurement": "RFU change (Correlation analysis)", "setting": "[2]; Cellulose 10-[…]", "result": "Increase"}, {"measurement": "RFU change (Signal deviation with increasing [Carbohydrate])", "setting": "[2]; Cellulose 10-[…]", "result": "Increase"}, {"measurement": "λmax change", "setting": "[2]; Cellulose 10-[…]", "result": "Redshift"}, {"measurement": "carbohydrate can be detected and/or differentiated by the LCO", "setting": "[2]; Cellulose", "result": "can be detected and/or differentiated"}, {"measurement": "RFU change (Correlation analysis)", "setting": "[2]; Chitin 10-[…]", "result": "Increases"}, {"measurement": "RFU change (Signal deviation with increasing [Carbohydrate])", "setting": "[2]; Chitin 10-[…]", "result": "Increases"}, {"measurement": "λmax change", "setting": "[2]; Chitin 10-[…]", "result": "Redshift"}, {"measurement": "carbohydrate can be detected and/or differentiated by the LCO", "setting": "[2]; Chitin", "result": "can be detected and/or differentiated"}, {"measurement": "Gradient Parameters (gradient of regression line)", "setting": "[2]; cellulose concentration vs RFU", "result": "194.0 ± 29.9"}, {"measurement": "Linear relationship", "setting": "[2]; cellulose concentration vs RFU", "result": "Significant"}, {"measurement": "Quality of Gradient", "setting": "[2]; cellulose concentration vs RFU", "result": "Positive"}, {"measurement": "Gradient Parameters (gradient of regression line)", "setting": "[2]; chitin concentration vs RFU", "result": "338.2 ± 19.4"}, {"measurement": "Linear relationship", "setting": "[2]; chitin concentration vs RFU", "result": "Significant"}, {"measurement": "Quality of Gradient", "setting": "[2]; chitin concentration vs RFU", "result": "Positive"}, {"measurement": "Sensitivity", "setting": "[2]; to cellulose", "result": "Yes"}, {"measurement": "Sensitivity", "setting": "[2]; to chitin", "result": "Yes"}, {"measurement": "Sensitivity", "setting": "[2]; to β-1,3-glucan", "result": "Yes"}, {"measurement": "carbohydrate can be detected and/or differentiated by the LCO", "setting": "[2]; β-1,3-Glucan", "result": "can be detected and/or differentiated"}, {"measurement": "RFU change (Correlation analysis)", "setting": "[2]; β-1,3-glucan 10-[…]", "result": "Increase"}, {"measurement": "RFU change (Signal deviation with increasing [Carbohydrate])", "setting": "[2]; β-1,3-glucan 10-[…]", "result": "Increase"}, {"measurement": "Gradient Parameters (gradient of regression line)", "setting": "[2]; [8]", "result": "119.1 ± 16.69"}, {"measurement": "Quality of Gradient", "setting": "[2]; [8]", "result": "Positive"}, {"measurement": "RFU change (Correlation analysis)", "setting": "[3]; Chondroitin Sulfate A 5-0.019 mg/ml, 3 μM probe, probe-specific excitation λ, emission 545 nm", "result": "Increases"}, {"measurement": "RFU change (Signal deviation with increasing [Carbohydrate])", "setting": "[3]; [9]", "result": "Increases"}, {"measurement": "λmax change", "setting": "[3]; [9]", "result": "No change"}, {"measurement": "Gradient Parameters (gradient of regression line)", "setting": "[3]; [10]", "result": "143.4 ± 10.01"}, {"measurement": "Linear relationship", "setting": "[3]; [10]", "result": "Significant"}, {"measurement": "Quality of Gradient", "setting": "[3]; [10]", "result": "Positive"}, {"measurement": "carbohydrate can be detected and/or differentiated by the LCO", "setting": "[3]; Chondroitin sulfate A, conclusion from change in signal magnitude and/or shift in λmax", "result": "can be detected and/or differentiated"}, {"measurement": "Sensitivity", "setting": "[3]; to Chondroitin Sulfate A", "result": "Yes"}, {"measurement": "RFU change (Correlation analysis)", "setting": "[4]; Glycogen 5-0.019 mg/ml, 3 μM probe", "result": "Increases"}, {"measurement": "RFU change (Signal deviation with increasing [Carbohydrate])", "setting": "[4]; [11]", "result": "Increases"}, {"measurement": "λmax change", "setting": "[4]; [11]", "result": "Redshift"}, {"measurement": "carbohydrate can be detected and/or differentiated by the LCO", "setting": "[4]; Glycogen", "result": "can be detected and/or differentiated"}, {"measurement": "RFU change (Correlation analysis)", "setting": "[4]; Heparin 5-0.019 mg/ml, 3 μM probe", "result": "Increases"}, {"measurement": "RFU change (Signal deviation with increasing [Carbohydrate])", "setting": "[4]; Heparin 5-0.019 mg/ml, 3 μM probe, spectral analysis, Excitation 300-500, Emission 545", "result": "Increases"}, {"measurement": "carbohydrate can be detected and/or differentiated by the LCO", "setting": "[4]; Heparin", "result": "can be detected and/or differentiated"}, {"measurement": "Gradient Parameters (gradient of regression line)", "setting": "[4]; glycogen concentration vs RFU", "result": "72.8 ± 13.4"}, {"measurement": "Linear relationship", "setting": "[4]; glycogen concentration vs RFU", "result": "Significant"}, {"measurement": "Quality of Gradient", "setting": "[4]; glycogen concentration vs RFU", "result": "Positive"}, {"measurement": "Gradient Parameters (gradient of regression line)", "setting": "[4]; heparin concentration vs RFU", "result": "29.3 ± 8.6"}, {"measurement": "Linear relationship", "setting": "[4]; heparin concentration vs RFU", "result": "Significant"}, {"measurement": "Quality of Gradient", "setting": "[4]; heparin concentration vs RFU", "result": "Positive"}, {"measurement": "Sensitivity", "setting": "[4]; to glycogen", "result": "Yes"}, {"measurement": "Sensitivity", "setting": "[4]; to heparin", "result": "Yes"}, {"measurement": "RFU change (Correlation analysis)", "setting": "[5]; Sodium alginate 5-0.019 mg/ml, 3 μM probe, probe-specific excitation λ, emission 545 nm", "result": "Increases"}, {"measurement": "RFU change (Signal deviation with increasing [Carbohydrate])", "setting": "[5]; Sodium alginate 5-0.019 mg/ml, 3 μM probe, spectral analysis, Excitation 300-500, Emission 545", "result": "Increases"}, {"measurement": "carbohydrate can be detected and/or differentiated by the LCO", "setting": "[5]; Sodium alginate, conclusion from change in signal magnitude and/or shift in λmax", "result": "can be detected and/or differentiated"}, {"measurement": "Gradient Parameters (gradient of regression line)", "setting": "[5]; [12]", "result": "78.6 ± 18.6"}, {"measurement": "Linear relationship", "setting": "[5]; [12]", "result": "Significant"}, {"measurement": "Quality of Gradient", "setting": "[5]; [12]", "result": "Positive"}, {"measurement": "Sensitivity", "setting": "[5]; to sodium alginate", "result": "Yes"}, {"measurement": "RFU change (Correlation analysis)", "setting": "[6]; Amylose 5-0.019 mg/ml, 3 μM probe", "result": "Unclear"}, {"measurement": "RFU change (Signal deviation with increasing [Carbohydrate])", "setting": "[6]; Amylose 5-0.019 mg/ml, 3 μM probe, spectral analysis, Excitation 300-500, Emission 545", "result": "Unclear"}, {"measurement": "RFU change (Correlation analysis)", "setting": "[6]; Cellulobiose 5-0.019 mg/ml, 3 μM probe", "result": "Unclear"}, {"measurement": "RFU change (Signal deviation with increasing [Carbohydrate])", "setting": "[6]; [13]", "result": "Unclear"}, {"measurement": "λmax change", "setting": "[6]; [13]", "result": "No change"}, {"measurement": "Gradient Parameters (gradient of regression line)", "setting": "[6]; amylose concentration vs RFU", "result": "−28.4 ± 21.6"}, {"measurement": "Quality of Gradient", "setting": "[6]; amylose concentration vs RFU", "result": "Horizontal"}, {"measurement": "Gradient Parameters (gradient of regression line)", "setting": "[6]; [14]", "result": "−1.30 ± 12.9"}, {"measurement": "Quality of Gradient", "setting": "[6]; [14]", "result": "Horizontal"}, {"measurement": "Sensitivity", "setting": "[6]; to amylose", "result": "No"}, {"measurement": "Sensitivity", "setting": "[6]; to cellulobiose", "result": "No"}]}
